Reference: patent publication US6869946B2, “Substituted azabicyclic moieties for the treatment of disease” (Pfizer Inc, priority 2001, dated 2005)

biological target: T1, α7 nAChR (Rattus norvegicus, UniProt Q05941); assay: [3H]-MLA competition binding assay in rat brain membranes; settings: inhibition of [3H]-MLA binding, rat brain homogenate (whole brain minus cerebellum), Cheng-Prusoff
T1 construct: brains (whole brain minus cerebellum) are dissected quickly, weighed and homogenized; from tissue; host or cells: rat brain (whole brain minus cerebellum) membranes
T1 sequence (Q05941 23-502): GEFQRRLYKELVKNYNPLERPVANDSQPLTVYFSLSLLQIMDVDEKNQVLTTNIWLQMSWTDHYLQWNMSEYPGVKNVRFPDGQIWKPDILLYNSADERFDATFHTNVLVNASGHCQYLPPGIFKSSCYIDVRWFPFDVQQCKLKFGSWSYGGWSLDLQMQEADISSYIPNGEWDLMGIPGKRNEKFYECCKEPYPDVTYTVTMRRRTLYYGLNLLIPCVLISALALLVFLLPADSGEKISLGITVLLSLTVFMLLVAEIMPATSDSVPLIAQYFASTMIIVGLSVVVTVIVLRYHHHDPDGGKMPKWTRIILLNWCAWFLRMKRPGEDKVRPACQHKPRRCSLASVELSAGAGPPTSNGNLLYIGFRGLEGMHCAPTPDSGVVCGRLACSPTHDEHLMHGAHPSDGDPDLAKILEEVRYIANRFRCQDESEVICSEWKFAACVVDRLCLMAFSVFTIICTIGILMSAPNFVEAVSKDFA
Description: Materials and Methods for Identifying Binding Constants:
Membrane Preparation. Male Sprague-Dawley rats (300-350 g) are sacrificed by decapitation and the brains (whole brain minus cerebellum) are dissected quickly, weighed and homogenized in 9 volumes/g wet weight of ice-cold 0.32 M sucrose using a rotating pestle on setting 50 (10 up and down strokes). The homogenate is centrifuged at 1,000× g for 10 minutes at 4° C. The supernatant is collected and centrifuged at 20,000× g for 20 minutes at 4° C. The resulting pellet is resuspended to a protein concentration of 1-8 mg/mL. Aliquots of 5 mL homogenate are frozen at −80° C. until needed for the assay. On the day of the assay, aliquots are thawed at room temperature and diluted with Kreb's—20 mM Hepes buffer pH 7.0 (at room temperature) containing 4.16 mM NaHCO3, 0.44 mM KH2PO4, 127 MM NaCl, 5.36 mM KCl, 1.26 mM CaCl2, and 0.98 mM MgCl2, so that 25-150 μg protein are added per test tube. Protein concentration is determined by the Bradford method (Bradford, M. M., Anal. Biochem., 72, 248-254, 1976) using bovine serum albumin as the standard.
Binding Assay. For saturation studies, 0.4 mL homogenate are added to test tubes containing buffer and various concentrations of radioligand, and are incubated in a final volume of 0.5 mL for 1 hour at 25° C. Nonspecific binding was determined in tissues incubated in parallel in the presence of 1 μM MLA, added before the radioligand. In competition studies, drugs are added in increasing concentrations to the test tubes before addition of approximately 3.0 to 4.0 nM [^3H]-MLA. The incubations are terminated by rapid vacuum filtration through Whatman GF/B glass filter paper mounted on a 48 well Brandel cell harvester. Filters are pre-soaked in 50 mM Tris HCl pH 7.0-0.05% polyethylenimine. The filters are rapidly washed two times with 5 mL aliquots of cold 0.9% saline and then counted for radioactivity by liquid scintillation spectrometry.
Data Analysis. In competition binding studies, the inhibition constant (Ki) was calculated from the concentration dependent inhibition of [^3H]-MLA binding obtained from non-linear regression fitting program according to the Cheng-Prusoff equation (Cheng, Y. C. and Prussoff, W. H., Biochem. Pharmacol., 22, p. 3099-3108, 1973). Hill coefficients were obtained using non-linear regression (GraphPad Prism sigmoidal dose-response with variable slope).

Structure (SMILES)	Ki
O=C(NC1CC2CCN(C2)C1)c1ccc(Cl)cc1 (racemic) [Example 3 (racemic), Exo-N-[1-azabicyclo[3.2.1]oct-3-yl]-4-chlorobenzamide 4-methylbenzenesulfonate]	115 nM
O=C(N[C@H]1CN2CCC1CC2)c1ccc(Cl)cc1 [Example 1(a)]	26 nM
O=C(N[C@H]1C[C@@H]2CCN(C2)C1)c1ccc(Cl)cc1 [Example 3 (3S, 5S), (3S,5S)-N-(1-azabicyclo[3.2.1]oct-3-yl)-4-chlorobenzamide 4-methylbenzenesulfonate]	> 1000 nM
C[C@H]1[C@H](NC(=O)c2ccc(Cl)cc2)C2CCN1CC2 [Example 1(b)(i), 4-chloro-N-[(2S,3R)-2-methyl-1-azabicyclo[2.2.2]oct-3-yl]benzamide 4-methylbenzenesulfonate]	65 to 140 nM
O=C(N[C@@H]1C[C@H]2CCN(C2)C1)c1ccc(Cl)cc1 [Example 3 (3R, 5R), (3R,5R)-N-(1-azabicyclo[3.2.1]oct-3-yl)-4-chlorobenzamide 4-methylbenzenesulfonate]	18 nM
